System: EGFR
Test: Ligand activation of EGFR monitored by relocalization of the 2×(SH2)Grb2 biosensor in live cells
Format: cell-based, human
Details: 100 ng/mL; much less than EGF
Protocol: The nucleic acid encoding TagGFP-2×(SH2)Grb2 was cloned into a lentiviral vector. Lentiviral particles were prepared and used to stably transfect A549 cells with the TagGFP:2×(SH2)Grb2 biosensor.
The cell nuclei were labeled with 1 μM DRAQ5.
A variety of other ligands were tested for their ability to activate EGFR, as monitored by the SH2 biosensor. […] Most of the ligands were tested for activity with the TagGFP:2×(SH2)Grb2 biosensor in live cells. […]

## HGF: a growth factor that binds HGFR
  Activity (relocalization of the SH2 biosensor): showed activity

Source: patent publication US20130059362A1, “BIOSENSORS COMPRISING PROTEIN-BINDING DOMAINS AND FLUORESCENT PROTEINS” (SIGMA-ALDRICH CO., LLC, priority 2010, published 2013)
